What was measured:
[1] = biological target: HA H1 A/New Caledonia/20/99 (Influenza A virus (A/New Caledonia/20/1999(H1N1)), UniProt Q6WG00); assay: biochemical; conditions: Competition binding (AlphaLISA), pIC50 H1 A/New Caledonia/20/99
H5N1 A/Vietnam/1203/04 = assay: microbe, parasite or virus in culture; format: cell-based, influenza A virus; conditions: 96 h, average of repeats; for EC50: Influenza A virus, H5N1, MDCK, read-out: Virus neutralization assay (VNA), pEC50 H5N1 A/Vietnam/1203/04, MDCK cells, 96 h, CPE by ATPlite (converted)
[2] = biological target: HA H1 A/California/07/09 (Influenza A virus (A/California/07/2009(H1N1)), UniProt C3W5X2); assay: biochemical; conditions: Competition binding (AlphaLISA), pIC50 H1 A/California/07/09
H1N1 A/California/07/09 = assay: microbe, parasite or virus in culture; format: cell-based, influenza A virus; conditions: for EC50: Influenza A virus, H1N1, MDCK, 96 h, read-out: Virus neutralization assay (VNA), pEC50 H1N1 A/California/07/09 (converted)
in vitro = conditions: dog, Cytotoxicity (pCC50) MDCK
[3] = system: H1N1 A/New Caledonia/20/99; assay: microbe, parasite or virus in culture; format: cell-based, influenza A virus; conditions: for EC50: Influenza A virus, H1N1, MDCK, 96 h, read-out: Virus neutralization assay (VNA), pEC50 H1N1 A/New Caledonia/20/99 (converted)
[4] = biological target: HA H5 A/Vietnam/1203/04 (Influenza A virus (A/Vietnam/1203/2004(H5N1)), UniProt Q5EP31); assay: biochemical; conditions: Competition binding (AlphaLISA), pIC50 H5 A/Vietnam/1203/04

| Compound | IC50 [1] | EC50 (H5N1 A/Vietnam/1203/04) | IC50 [2] | EC50 (H1N1 A/California/07/09) | CC50 (in vitro) | EC50 [3] | IC50 [4] | Virus neutralization assay (VNA), pEC50 H5N1 A/Vietnam/1203/04 (H5N1 A/Vietnam/1203/04; MDCK cells, CPE by ATPlite) | Virus neutralization assay (VNA), pEC50 H1N1 A/California/07/09 (H1N1 A/California/07/09) | Virus neutralization assay (VNA), pEC50 H1N1 A/New Caledonia/20/99 [3] |
| --- | --- | --- | --- | --- | --- | --- | --- | --- | --- | --- |
| COC(=O)C(c1ccccc1)N1CCN(C(=O)c2cccc(-c3nc4cc(Cl)ccc4o3)c2)CC1 (stereo not drawn) [Example 59] | 63.1 nM | 20000 nM | 63.1 nM | 398 nM | > 50100 nM | 501 nM | 2000 nM |  |  |  |
| COC(=O)C(c1ccccc1)N1CCN(C(=O)c2cccc(-c3nc4ccc(OC)cc4o3)c2)CC1 (stereo not drawn) [Example 60] | 39.8 nM | 12600 nM | 63.1 nM | 631 nM | 25100 nM | 501 nM | 1580 nM |  |  |  |
| COc1ccc2nc(-c3cccc(C(=O)N4CCN([C@H](c5ccccc5)c5nnn(C)n5)CC4)c3)sc2c1 [Example 61] | 63.1 nM | 2000 nM | 79.4 nM | 631 nM | 39800 nM | 501 nM | 501 nM |  |  |  |
| COC(=O)[C@H](c1ccccc1)N1CCN(C(=O)c2cccc(-c3nc4cc(C(F)(F)F)ccc4o3)c2)[C@@H](C(N)=O)C1 [Example 62] | 100 nM | 20000 nM | 100 nM | 631 nM | 39800 nM | 631 nM | 3160 nM |  |  |  |
| Cc1nnc([C@@H](c2ccccc2)N2CCN(C(=O)c3cc(F)cc(-c4nc5cc(C(F)(F)F)ccc5o4)c3)CC2)o1 [Example 63] | 158 nM | > 50100 nM | 158 nM | 631 nM | > 50100 nM | 501 nM | 15800 nM |  |  |  |
| CNC(=O)c1cnc(-c2cccc(C(=O)N3CCN(C(C(=O)OC)c4ccccc4)CC3)c2)s1 (stereo not drawn) [Example 64] | 79.4 nM | 25100 nM | 79.4 nM | 1000 nM | > 50100 nM | 501 nM | 2000 nM |  |  |  |
| COC(=O)C(c1ccccn1)C1CCN(C(=O)c2cccc(-c3nc4ccc(OC)cc4s3)c2)CC1 (stereo not drawn) [Example 66] | 63.1 nM | 12600 nM | 100 nM | 1000 nM | 20000 nM | 501 nM | 794 nM |  |  |  |
| COC(=O)[C@@H](c1ccccc1)N1CCN(C(=O)c2cccc(-c3nc4cc(C(F)(F)F)ccc4o3)c2)[C@H](CC(N)=O)C1 [Example 67] | 50.1 nM | 31600 nM | 50.1 nM | 794 nM | 39800 nM | 631 nM | 3160 nM |  |  |  |
| COC(=O)C(c1cccnc1)N1CCN(C(=O)c2cccc(-c3nc4ccc(OC)cc4s3)c2)CC1 (stereo not drawn) [Example 68] | 100 nM | 20000 nM | 200 nM | 2000 nM | 10000 nM | 501 nM | 1260 nM |  |  |  |
| [2H]C([2H])([2H])c1nnc(C(c2ccccc2)N2CCN(C(=O)c3cccc(-c4nc5cc(C(F)(F)F)ccc5o4)c3)CC2)o1 (stereo not drawn) [Example 70] | 158 nM | > 50100 nM | 158 nM | 501 nM | > 50100 nM | 631 nM | 3980 nM |  |  |  |
| COc1ccc2nc(-c3cccc(C(=O)N4CCN(C(c5ccccc5)c5nnc(C)o5)CC4)c3)sc2c1 (stereo not drawn) [Example 71] | 100 nM | 7940 nM | 100 nM | 794 nM | > 50100 nM | 631 nM | 1000 nM |  |  |  |
| COc1ccc2nc(-c3cccc(C(=O)N4CCN(C(c5ccccc5)c5nnn(C)n5)CC4)c3)sc2c1 (stereo not drawn) [Example 72] | 126 nM | 39800 nM | 200 nM | 794 nM | 50100 nM | 631 nM | 1580 nM |  |  |  |
| Cc1nnc(C(c2ccccc2)N2CCN(C(=O)c3cccc(-c4nc5cc(NS(C)(=O)=O)ccc5o4)c3)CC2)o1 (stereo not drawn) [Example 73] | 25.1 nM | > 50100 nM | 15.8 nM | 794 nM | > 50100 nM | 794 nM | 1260 nM |  |  |  |
| COc1ccc2nc(-c3cccc(C(=O)N4CCN(C(c5ccccc5)c5ncco5)CC4)c3)sc2c1 (stereo not drawn) [Example 74] | 79.4 nM | 6310 nM | 200 nM | 1000 nM | > 50100 nM | 631 nM | 2000 nM |  |  |  |
| NCc1nnc(C(c2ccccc2)N2CCN(C(=O)c3cccc(-c4nc5cc(C(F)(F)F)ccc5o4)c3)CC2)o1 (stereo not drawn) [Example 75] | 158 nM | 7940 nM | 200 nM | 1000 nM | 10000 nM | 631 nM | 3980 nM |  |  |  |
| Cc1nnc([C@@H](c2ccccc2)N2CCN(C(=O)c3cccc(-c4cnc5ccccc5c4)c3)CC2)o1 [Example 76] | 158 nM | 31600 nM | 200 nM | 1260 nM | 15800 nM | 631 nM | 10000 nM |  |  |  |
| Cc1nnc([C@@H](c2ccccc2)N2CCN(C(=O)c3cccc(-c4nc5cccc(C)c5o4)c3)CC2)o1 [Example 77] | 200 nM | > 50100 nM | 251 nM | 1260 nM | 3980 nM | 631 nM | 10000 nM |  |  |  |
| COC(=O)C(c1ccccc1)N1CCN(C(=O)c2cccc(-c3nc4ccc(OC)cc4s3)n2)CC1 (stereo not drawn) [Example 78] | 316 nM | 50100 nM | 631 nM | 1260 nM | > 50100 nM | 631 nM | 25100 nM |  |  |  |
| COc1ccc2nc(-c3cccc(C(=O)N4CCN(C(c5ccccc5)c5nnco5)CC4)c3)sc2c1 (stereo not drawn) [Example 79] | 79.4 nM | 12600 nM | 200 nM | 1580 nM | > 50100 nM | 631 nM | 1260 nM |  |  |  |
| COC(=O)C(c1ccccc1)N1CCN(C(=O)c2ccc(-c3nc4ccc(OC)cc4s3)o2)CC1 (stereo not drawn) [Example 80] | 251 nM | > 50100 nM | 316 nM | 1580 nM | > 50100 nM | 631 nM | 1000 nM |  |  |  |
| COC(=O)C(c1ccccc1)N1CCN(C(=O)c2cccc(NC(=O)c3ccc(OC)cc3)c2)CC1 (stereo not drawn) [Example 81] | 126 nM | 10000 nM | 200 nM | 2000 nM | > 50100 nM | 631 nM | 1260 nM |  |  |  |
| COc1ccc2nc(-c3cccc(C(=O)N4CCN(C(CO)c5ccccc5)CC4)c3)sc2c1 (stereo not drawn) [Example 82] | 126 nM | 12600 nM | 200 nM | 2000 nM | 5010 nM | 631 nM | 1000 nM |  |  |  |
| COc1ccc2nc(-c3cccc(C(=O)N4CCN(C(C(N)=O)c5ccccc5)CC4)c3)sc2c1 (stereo not drawn) [Example 84] | 200 nM | 31600 nM | 316 nM | 2510 nM | > 50100 nM | 631 nM | 1580 nM |  |  |  |
| Cc1nnc(C(c2ccccc2)N2CCN(C(=O)c3cccc(-c4nc5cc(C(F)(F)F)ccc5o4)c3)CC2)o1 (stereo not drawn) [Example 86] | 126 nM | 31600 nM | 79.4 nM | 631 nM | 31600 nM | 794 nM | 3160 nM |  |  |  |
| O=C(c1cccc(-c2nc3cc(C(F)(F)F)ccc3o2)c1)N1CCN(C(c2ccccc2)c2nnc(C3(O)CNC3)o2)CC1 (stereo not drawn) [Example 87] | 39.8 nM | 39800 nM | 63.1 nM | 398 nM | > 50100 nM | 501 nM | 2510 nM |  |  |  |
| COC(=O)C(c1ccccc1)N1C[C@H]2CC[C@@H](C1)N2C(=O)c1cccc(-c2nc3ccc(OC)cc3s2)c1 (stereo partly drawn) [Example 88] | 126 nM | 12600 nM | 200 nM | 1000 nM | > 50100 nM | 794 nM | 501 nM |  |  |  |
| COC(=O)C(c1ccccc1)N1CCN(C(=O)c2cccc(-c3ncc(C(=O)N4CCOCC4)s3)c2)CC1 (stereo not drawn) [Example 89] | 79.4 nM | 15800 nM | 79.4 nM | 1260 nM | > 50100 nM | 794 nM | 1260 nM |  |  |  |
| COc1ccc2nc(-c3cccc(C(=O)N4CCN(C(C(C)=O)c5ccccc5)CC4)c3)sc2c1 (stereo not drawn) [Example 90] | 158 nM |  | 316 nM |  | 31600 nM |  | 1000 nM | <4.3 | 5.8 | 6.1 |
| COc1ccc2nc(-c3cccc(C(=O)N4CCN(C(c5ccccc5)c5ccc[nH]c5=O)CC4)c3)sc2c1 (stereo not drawn) [Example 91] | 316 nM | > 50100 nM | 501 nM | 1580 nM | 39800 nM | 794 nM | 2510 nM |  |  |  |
| O=C(c1cccc(-c2nc3cc(C(F)(F)F)ccc3o2)c1)N1CCN(C(c2ccccc2)c2nnc(C3CNC3)o2)CC1 (stereo not drawn) [Example 92] | 79.4 nM | 10000 nM | 126 nM | 3160 nM | 10000 nM | 794 nM | 3160 nM |  |  |  |

— patent US11040963B2 (priority 2017, dated 2021)
